Like-named read-outs stand apart in the source and are kept apart here.
Key:
[1] = target: human glutaminyl cyclase (hQC) (Homo sapiens (Human), UniProt Q16769); settings: J-S, NCB 2015 supplementary information; read-out: IC50 on isolated hQC; cited from earlier work
[2] = system: SIRPα signalling induced by A549 cells; assay: Assay B: SIRPα signalling assay using A549 cells; format: cell-based, human
How it was run: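 5000 Raji or A549 cells were cultured 48 h at 37 °C with serially diluted compound (DMSO), then 15000 Jurkat PathHunter SIRPα reporter cells were added for 5 h. Beta-galactosidase luminescence was developed at RT, and IC50 obtained by 4-parameter sigmoidal fit.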

QPCT = QPCT (Homo sapiens (Human), UniProt Q16769); assay: Assay A: biochemical QPCT activity assay (MALDI-TOF MS); settings: read-out: Inhibition of QPCT: IC50
How it was run: (§1)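 Compounds preincubated 10 min at 24 °C with enzyme in 20 mM Tris pH 7.5, 0.1 mM TCEP, 0.01% BSA, 0.001% Tween20; CD47 peptide substrate (final 10 μM for QPCTL, 20 μM for QPCT) reacted 40 min at 24 °C. Pyroglutamate product read by MALDI-TOF MS versus internal standard, normalized to controls; four-parameter fit.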

[3] = system: SIRPα signalling induced by Raji cells; assay: Assay B: SIRPα signalling assay using Raji cells; format: cell-based, human
How it was run: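 SIRPα signalling induced by Raji cells in a PathHunter reporter line, read as β-galactosidase complementation luminescence. Detection reagent 1 added for 15 min, then reagent 2 for 60 min in the dark, both at room temperature.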

Caco-2 cells = assay: Assay C: permeability in CACO-2 cells; format: in vitro ADME; settings: prior art compounds, Table 8; for Permeability A-B: Caco-2, apical to basolateral; for efflux ratio: Caco-2
How it was run: (§2)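 Compound in transport solution applied to apical or basolateral donor side for A-B or B-A permeability, 3 filter replicates. Donor sampled at start and end, receiver at intervals up to 2 hours with volume replaced; concentrations by HPLC-MS/MS or scintillation counting.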

QPCTL = QPCTL (Homo sapiens (Human), UniProt Q9NXS2); assay: Assay A: biochemical QPCTL activity assay (MALDI-TOF MS); settings: read-out: Inhibition of QPCTL: IC50
How it was run: as §1

[4] = Assay C: permeability in CACO-2 cells; format: in vitro ADME; settings: human, pH 7.2; for Papp A→B / efflux ratio: compounds of the invention, Table 7
How it was run: as §2

[5] = target: glutamine acyl cyclase isoenzyme (Homo sapiens (Human), UniProt Q9NXS2); settings: given in CN 114874186; cited from earlier work
[6] = prior art compounds, Table 5, read-out: Inhibition of SIRPα signalling induced by A549 cells: IC50
[7] = prior art compounds, Table 5, read-out: Inhibition of SIRPα signalling induced by Raji cells: IC50
[8] = compounds of the invention, Table 2
[9] = Homo sapiens, compounds of the invention, Table 4, read-out: Inhibition of SIRα signalling induced by A549 cells: IC50
[10] = Homo sapiens, prior art compounds, Table 5, read-out: Inhibition of SIRPα signalling induced by A549 cells: IC50
[11] = Homo sapiens, compounds of the invention, Table 4, read-out: Inhibition of SIRα signalling induced by Raji cells: IC50
[12] = Homo sapiens, prior art compounds, Table 5, read-out: Inhibition of SIRPα signalling induced by Raji cells: IC50

Sequence of QPCTL (Q9NXS2 whole entry): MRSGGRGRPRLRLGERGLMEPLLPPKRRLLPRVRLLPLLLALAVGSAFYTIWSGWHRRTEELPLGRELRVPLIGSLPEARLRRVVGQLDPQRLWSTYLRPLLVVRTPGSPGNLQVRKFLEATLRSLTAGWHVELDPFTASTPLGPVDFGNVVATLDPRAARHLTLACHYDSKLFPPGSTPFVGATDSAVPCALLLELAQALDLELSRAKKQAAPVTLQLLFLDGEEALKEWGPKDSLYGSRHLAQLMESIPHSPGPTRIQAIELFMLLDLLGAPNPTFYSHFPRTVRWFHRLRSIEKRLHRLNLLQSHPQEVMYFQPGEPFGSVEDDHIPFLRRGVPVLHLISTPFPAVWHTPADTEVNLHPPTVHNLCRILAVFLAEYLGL
Sequence of QPCT (Q16769 29-361): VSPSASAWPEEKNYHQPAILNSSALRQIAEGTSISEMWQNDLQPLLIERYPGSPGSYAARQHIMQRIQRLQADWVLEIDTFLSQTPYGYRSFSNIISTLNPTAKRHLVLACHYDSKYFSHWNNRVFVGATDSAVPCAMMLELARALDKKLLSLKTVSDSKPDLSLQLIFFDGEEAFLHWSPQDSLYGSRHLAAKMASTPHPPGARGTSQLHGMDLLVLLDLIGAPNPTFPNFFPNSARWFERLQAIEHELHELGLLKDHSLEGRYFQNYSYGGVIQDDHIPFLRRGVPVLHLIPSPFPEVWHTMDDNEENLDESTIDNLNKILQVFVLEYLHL
Sequence of glutamine acyl cyclase isoenzyme (Q9NXS2 whole entry): as the sequence (Q9NXS2 whole entry) above
Sequence of human glutaminyl cyclase (hQC) (Q16769 29-361): as the sequence (Q16769 29-361) above

Structure (SMILES)	IC50 [1] [nM]	IC50 [2, 6] [nM]	IC50 (QPCT; prior art compounds, Table 3) [nM]	IC50 [3, 7] [nM]	Permeability A-B (Caco-2 cells)	IC50 (QPCTL; [8]) [nM]	IC50 [2, 9] [nM]	IC50 [2, 10] [nM]	IC50 (QPCT; [8]) [nM]	IC50 [3, 11] [nM]	IC50 [3, 12] [nM]	Papp A→B ([4]; Caco-2, apical to basolateral) [×10⁻⁶ cm/s]	efflux ratio ([4]; Caco-2)	efflux ratio (Caco-2 cells)	IC50 (QPCTL; prior art compounds, Table 3) [nM]	IC50 [5] [nM]	Papp A→B at 2 h ([4]; Caco-2, apical to basolateral, prior art compounds, Table 8) [×10⁻⁶ cm/s]	efflux ratio at 2 h ([4]; Caco-2, prior art compounds, Table 8)
Cn1cnnc1C1CCN(c2ncccc2-c2cccnc2)CC1 [SEN180, reference compound]	170	868	176	2970	4.2 10^−6 cm/s													
COCCOc1ncc(-c2cccc(C#N)c2N2CCC(c3nncn3C)CC2)cn1 [compound 3, reference compound]					93 10^−6 cm/s	11	290	1400	51	629	2740	0.6	41.8	0.8				
Cn1cnnc1C1CCN(c2c(C#N)cccc2-c2cncc(-n3cccn3)c2)CC1 [compound 6, reference compound]					0.2 10^−6 cm/s	1	26	14	7	220	9	3.9	16.9	65.0	1			
Cn1cnnc1C1CCN(S(=O)(=O)c2cccc(Nc3ccc(OCc4ccccc4)nc3)c2)CC1 [compound 23, reference compound]			1840					> 10000			> 10000				4770	11.3	3.5	17.6
Nc1ncc(C2CCN(c3ncccc3-c3ccc(F)nc3)CC2)s1 [compound 1094, reference compound]		3060	1710	3240	68 10^−6 cm/s									0.5	111			
Nc1nnc(C2CCN(c3ncccc3-c3ccc(F)nc3)CC2)s1 [compound 1095, reference compound]		259	260	2200	73 10^−6 cm/s									1.0	13			
